Measured values: US8158628B2, “Sulfonylated 1,2,3,4-tetrahydropyrrolo[1,2-a]pyrazine compounds and their use as pharmaceuticals” (Gruenenthal GmbH, priority 2009, dated 2012)

Key:
[1] = target: T1, human B1R (Homo sapiens, UniProt P46663); test: FLIPR Ca2+ functional assay, B1R antagonism, human B1R in CHO K1 cells; type: cell-based; conditions: test substance 10 μM; hB1R CHO K1 cells; agonist Lys-Des-Arg9 bradykinin at EC80; % of maximum achievable inhibition
T1 construct: expressed in transfected cells; host or cells: CHO K1 cells (Chinese hamster ovary), stably transfected
T1 sequence (P46663 1-353): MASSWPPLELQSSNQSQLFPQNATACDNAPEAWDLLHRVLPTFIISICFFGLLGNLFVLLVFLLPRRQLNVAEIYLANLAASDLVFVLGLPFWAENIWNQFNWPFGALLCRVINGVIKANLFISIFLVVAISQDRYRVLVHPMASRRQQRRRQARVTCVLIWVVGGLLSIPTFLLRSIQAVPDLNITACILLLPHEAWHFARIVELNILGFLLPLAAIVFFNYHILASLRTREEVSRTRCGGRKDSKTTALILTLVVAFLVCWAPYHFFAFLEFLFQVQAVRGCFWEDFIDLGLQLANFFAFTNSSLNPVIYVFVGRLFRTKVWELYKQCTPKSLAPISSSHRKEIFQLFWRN
Protocol: The agonistic or antagonistic action of substances on the bradykinin 1 receptor (B1R) of the human and rat species can be quantified with ectopically expressing cell lines (CHO K1 cells) and with the aid of a Ca^2+-sensitive dye (Fluo-4) using a fluorescent imaging plate reader (FLIPR). The value in % activation is based on the Ca^2+ signal after addition of Lys-Des-Arg^9 bradykinin (0.5 nM) or Des-Arg^9 bradykinin (100 nM). Antagonists lead to a suppression of the Ca^2+ influx following administration of the agonist. The % inhibition in comparison with the maximum achievable inhibition is indicated.
1. Functional Investigation on the Bradykinin 1 Receptor (B1R) The agonistic or antagonistic action of substances can be determined on the bradykinin 1 receptor (B1R) of the human and rat species with the following assay. According to this assay, the Ca^2+ inflow through the channel is quantified with the aid of a Ca^2+-sensitive dye (Fluo-4 type, Molecular Probes Europe BV, Leiden, Netherlands) in a fluorescent imaging plate reader (FLIPR, Molecular Devices, Sunnyvale, USA). 2. Method: Chinese hamster ovary cells (CHO K1 cells) which are stably transfected with the human B1R gene (hB1R cells) or the B1R gene of the rat (rB1R cells) are used. For functional investigations these cells are plated-out onto black 96-well plates with a clear base (BD Biosciences, Heidelberg, Germany or Greiner, Frickenhausen, Germany) in a density of 20,000-35,000 cells/well. Overnight the cells are incubated at 37° C. and 5% CO2 in culture medium (hB1R cells: Ham's Nutrient Mixture F12, Gibco Invitrogen GmbH, Karlsruhe, Germany or DMEM, Sigma-Aldrich, Taufkirchen, Germany; rB1R cells: D-MEM/F12, Gibco Invitrogen, Karlsruhe, Germany) with 10 vol. % FBS (foetal bovine serum, Gibco Invitrogen GmbH, Karlsruhe, Germany or PAN Biotech GmbH, Aidenbach, Germany).
On the following day the cells are loaded with 2.13 μM Fluo-4 (Molecular Probes Europe BV, Leiden, Netherlands) in HBSS buffer (Hank's buffered saline solution, Gibco Invitrogen GmbH, Karlsruhe, Germany) with 2.5 mM probenecid (Sigma-Aldrich, Taufkirchen, Germany) and 10 mM HEPES (Sigma-Aldrich, Taufkirchen, Germany) for 60 min at 37° C. The plates are subsequently washed twice with HBSS buffer, and HBSS buffer which additionally contains 0.1% BSA (bovine serum albumin; Sigma-Aldrich, Taufkirchen, Germany), 5.6 mM glucose and 0.05% gelatine (Merck KGaA, Darmstadt, Germany) is added. After a further incubation of 20 minutes at RT, the plates are inserted into the FLIPR for Ca^2+ measurement. Alternatively they are washed with buffer A (15 mM HEPES, 80 mM NaCl, 5 mM KCl, 1.2 mM CaCl2, 0.7 mM MgSO4, 2 g/l glucose, 2.5 mM probenecid) and loaded with buffer A with added 2.5 μM Fluo-4 and 0.025% Pluronic F127 (Sigma-Aldrich, Taufkirchen, Germany). The cells are then washed twice with buffer A and incubated for 30 minutes with buffer A, which additionally contains 0.05% BSA and 0.05% gelatine, at RT and then used for Ca^2+ measurement in the FLIPR. The Ca^2+-dependent fluorescence is measured here before and after addition of substances (λex=488 nm, λem=540 nm). The quantification is performed by measuring the highest fluorescence intensity (FC, fluorescence counts) over time.
The FLIPR protocol comprises two additions of substance. Test substances (10 μM) are first pipetted onto the cells and the Ca^2+ inflow is compared with the control (hB1R: Lys-Des-Arg^9 bradykinin >=50 nM; rB1R: Des-Arg^9 bradykinin 10 μM). The value in % activation based on the Ca^2+ signal after addition of Lys-Des-Arg^9 bradykinin (>=50 nM) or Des-Arg^9 bradykinin (10 μM) is obtained therefrom. After incubation for 10-20 minutes, Lys-Des-Arg^9 bradykinin (hB1R) or Des-Arg^9 bradykinin (rB1R) is applied in the EC80 concentration and the inflow of Ca^2+ is likewise determined.
Antagonists lead to a suppression of the Ca^2+ inflow. The % inhibition in comparison with the maximum achievable inhibition is calculated. […]

[2] = target: T2, B1R of the rat (Rattus norvegicus, UniProt P97583); test: FLIPR Ca2+ functional assay, B1R antagonism, rat B1R in CHO K1 cells; type: cell-based; conditions: test substance 10 μM; rB1R CHO K1 cells; agonist Des-Arg9 bradykinin at EC80; % of maximum achievable inhibition
T2 construct: expressed in transfected cells; host or cells: CHO K1 cells (Chinese hamster ovary), stably transfected
T2 sequence (P97583 1-337): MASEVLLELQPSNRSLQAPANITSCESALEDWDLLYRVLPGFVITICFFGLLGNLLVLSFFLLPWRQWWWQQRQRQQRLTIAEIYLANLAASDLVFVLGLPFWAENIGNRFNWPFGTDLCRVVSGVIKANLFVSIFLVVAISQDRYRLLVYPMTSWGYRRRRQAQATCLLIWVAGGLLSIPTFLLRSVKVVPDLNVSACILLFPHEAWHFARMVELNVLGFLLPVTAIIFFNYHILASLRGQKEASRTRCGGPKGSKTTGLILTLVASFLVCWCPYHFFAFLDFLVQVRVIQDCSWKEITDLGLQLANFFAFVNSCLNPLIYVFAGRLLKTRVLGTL
Outline: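 Stably transfected CHO K1 cells loaded with Fluo-4; Ca2+ fluorescence read on FLIPR (ex 488/em 540 nm). Compound preincubated 10-20 min, then agonist at EC80: Lys-Des-Arg9 bradykinin (human) or Des-Arg9 bradykinin (rat). % inhibition vs maximal inhibition; IC50 from concentration series, n=2-3, N>=2.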

Compound | inhibition at 10 µM [1] [%] | inhibition at 10 µM [2] [%]
CNCc1ccc2c(c1)CCCC2NC(=O)CC1c2cccn2CCN1S(=O)(=O)c1ccc(C)cc1 (centres unmarked) [Example 133, N-[6-(Methylamino-methyl)-1,2,3,4-tetrahydro-naphthalen-1-yl]-2-[2-(p-tolylsulfonyl)-1,2,3,4-tetrahydro-pyrrolo[1,2-a]pyrazin-1-yl]-acetamide] | 99.4 | 104
O=C(CC1c2cccn2CCN1S(=O)(=O)c1cccc(C(F)(F)F)c1)NC1CCc2cc(CN3CCCCC3)ccc2C1 (centres unmarked) [Example 30, N-(6-(piperidin-1-ylmethyl)-1,2,3,4-tetrahydro-naphthalen-2-yl)-2-(2-(3-(trifluoromethyl)-phenylsulfonyl)-1,2,3,4-tetrahydropyrrolo-[1,2-a]pyrazin-1-yl)acetamide] | 99.8 | 102
O=C(CC1c2cccn2CCN1S(=O)(=O)c1cccc(C(F)(F)F)c1)NC1CCCc2cc(CNCc3ccccc3)ccc21 (centres unmarked) [Example 112, N-[6-[(Benzylamino)-methyl]-1,2,3,4-tetrahydro-naphthalen-1-yl]-2-[2-[[3-(trifluoromethyl)phenyl]sulfonyl]-1,2,3,4-tetrahydro-pyrrolo[1,2-a]pyrazin-1-yl]-acetamide] | 99.8 | 102
Cc1ccc(S(=O)(=O)N2CCn3cccc3C2CC(=O)NC2CCCc3cc(CN4C5CCCC4CC5)ccc32)cc1 (centres unmarked) [Example 108, N-[6-(8-Azabicyclo[3.2.1]octan-8-yl-methyl)-1,2,3,4-tetrahydro-naphthalen-1-yl]-2-[2-(p-tolylsulfonyl)-1,2,3,4-tetrahydro-pyrrolo[1,2-a]pyrazin-1-yl]-acetamide] | 99.9 | 101
Cc1ccc(S(=O)(=O)N2CCn3cccc3C2CC(=O)NC2CCCc3cc(CNCc4ccccc4)ccc32)cc1 (centres unmarked) [Example 127, N-[6-[(Benzylamino)-methyl]-1,2,3,4-tetrahydro-naphthalen-1-yl]-2-[2-(p-tolylsulfonyl)-1,2,3,4-tetrahydro-pyrrolo[1,2-a]pyrazin-1-yl]-acetamide] | 97.4 | 101
CNCc1ccc2c(c1)CCC(NC(=O)CC1c3cccn3CCN1S(=O)(=O)c1cccc(C(F)(F)F)c1)C2 (centres unmarked) [Example 139, N-[6-(Methylamino-methyl)-1,2,3,4-tetrahydro-naphthalen-2-yl]-2-[2-[[3-(trifluoromethyl)phenyl]sulfonyl]-1,2,3,4-tetrahydro-pyrrolo[1,2-a]pyrazin-1-yl]-acetamide] | 99.1 | 103

Now from value to compound:

inhibition at 10 µM [1] [%] | inhibition at 10 µM [2] [%] | Compound
99.8 | 99.4 | Cc1ccc(S(=O)(=O)N2CCn3cccc3C2CC(=O)NC2CCCc3cc(CN4CCN(C)CC4)ccc32)cc1Cl (centres unmarked) [Example 55, 2-[2-[(3-Chloro-4-methyl-phenyl)sulfonyl]-1,2,3,4-tetrahydro-pyrrolo[1,2-a]pyrazin-1-yl]-N-[6-[(4-methyl-piperazin-1-yl)-methyl]-1,2,3,4-tetrahydro-naphthalen-1-yl]-acetamide]
99.7 | 91.1 | CCC(C)NCc1ccc2c(c1)CCC(NC(=O)CC1c3cccn3CCN1S(=O)(=O)c1ccc(C)c(Cl)c1)C2 (centres unmarked) [Example 63, 2-[2-[(3-Chloro-4-methyl-phenyl)sulfonyl]-1,2,3,4-tetrahydro-pyrrolo[1,2-a]pyrazin-1-yl]-N-[6-[(1-methyl-propylamino)-methyl]-1,2,3,4-tetrahydro-naphthalen-2-yl]-acetamide]
99.5 | 103 | COc1ccc2cc(S(=O)(=O)N3CCn4cccc4C3CC(=O)N(C)C3CCc4cc(CN5CCCCC5)ccc4C3)ccc2c1 (centres unmarked) [Example 43, 2-[2-[(6-Methoxy-naphthalen-2-yl)sulfonyl]-1,2,3,4-tetrahydro-pyrrolo[1,2-a]pyrazin-1-yl]-N-methyl-N-[6-(piperidin-1-yl-methyl)-1,2,3,4-tetrahydro-naphthalen-2-yl]-acetamide]
99.9 | 101 | COc1ccc2cc(S(=O)(=O)N3CCn4cccc4C3CC(=O)NC3CCc4cc(CN5CCCC5)ccc4C3)ccc2c1 (centres unmarked) [Example 94, 2-[2-[(6-Methoxy-naphthalen-2-yl)sulfonyl]-1,2,3,4-tetrahydro-pyrrolo[1,2-a]pyrazin-1-yl]-N-[6-(pyrrolidin-1-yl-methyl)-1,2,3,4-tetrahydro-naphthalen-2-yl]-acetamide]
99.6 | 113 | COc1cc(C)c(S(=O)(=O)N2CCn3cccc3C2COCC(=O)N2CCC3(CCNC3)CC2)c(C)c1 (centres unmarked) [Example 22, 2-((2-(4-Methoxy-2,6-dimethylphenylsulfonyl)-1,2,3,4-tetrahydro-pyrrolo[1,2-a]pyrazin-1-yl)methoxy)-1-(2,8-diazaspiro[4.5]decan-8-yl)ethanone]
99.7 | 100 | Cc1ccc(S(=O)(=O)N2CCn3cccc3C2CC(=O)NC2CCc3cc(CN4CCN(C)CC4)ccc3C2)cc1Cl (centres unmarked) [Example 61, 2-[2-[(3-Chloro-4-methyl-phenyl)sulfonyl]-1,2,3,4-tetrahydro-pyrrolo[1,2-a]pyrazin-1-yl]-N-[6-[(4-methyl-piperazin-1-yl)-methyl]-1,2,3,4-tetrahydro-naphthalen-2-yl]-acetamide]
99.3 | 104 | Cc1ccc(S(=O)(=O)N2CCn3cccc3C2CC(=O)N[C@@H]2CCCc3cc(CN4CCC(F)CC4)ccc32)cc1 (stereo partly drawn) [Example 44, N-[(1R)-6-[(4-Fluoro-piperidin-1-yl)-methyl]-1,2,3,4-tetrahydro-naphthalen-1-yl]-2-[2-(p-tolylsulfonyl)-1,2,3,4-tetrahydro-pyrrolo[1,2-a]pyrazin-1-yl]-acetamide]
